Test results taken from the supplement of paper PMC11919725.

Assays:
Jurkat [1] = assay: confluency relative to DMSO, 18 h (ratio); higher = more viable
Method in brief: (§1)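 Naive or CD3/CD28 Dynabead-activated (48 h) primary CD4+/CD8+ T cells, or Jurkat cells, received compound at 1 nM–10 µM for 18 h at 37 °C. Confluency was measured by IncuCyte phase-contrast imaging with the Basic Analyzer and normalised to the mean of the control wells. Imaging used 100 µl of suspension per well in 96-well plates with IncuCyte Cytotox Dye and alamarBlue, at ×10 with five images per well every hour for 3 h.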

[2] = tested on: Primary T cells CD4+ activated; assay: as above
Method in brief: as §1

[3] = tested on: Primary T cells CD4+ naive; assay: as above
Method in brief: as §1

[4] = tested on: Primary T cells CD8+ activated; assay: as above
Method in brief: as §1

[5] = tested on: Primary T cells CD8+ naive; assay: as above
Method in brief: as §1

Jurkat [6] = assay: metabolic activity relative to DMSO, 18 h (ratio); higher = more viable
Method in brief: (§2)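 Naive or CD3/CD28 Dynabead-activated (48 h) primary CD4+/CD8+ T cells, or Jurkat cells, received compound at 1 nM–10 µM for 18 h. Readout used alamarBlue at 10% v/v final, with fluorescence taken after 3.5 h. Metabolic activity is given relative to mean vehicle control values.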

[7] = tested on: Primary T cells CD4+ activated; assay: as above
Method in brief: as §2

[8] = tested on: Primary T cells CD4+ naive; assay: as above
Method in brief: as §2

[9] = tested on: Primary T cells CD8+ activated; assay: as above
Method in brief: as §2

[10] = tested on: Primary T cells CD8+ naive; assay: as above
Method in brief: as §2

Jurkat [11] = assay: cytotoxicity relative to DMSO, 18 h (ratio); higher = less cell death (drugs called cytotoxic fall below 1)
Method in brief: (§3)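 Jurkat or primary CD4+/CD8+ T cells (naive, or activated 48 h with CD3/CD28 Dynabeads) were treated 18 h with compound at 1 nM–10 µM (log10 steps) at 37 °C, 5% CO2. Then 100 µl of suspension went into 96-well plates with IncuCyte Cytotox Dye (250 nM final). Cytotoxicity came from IncuCyte fluorescence imaging (×10, five images per well, hourly over 3 h). Signals were corrected for confluency, then normalised to mean DMSO controls.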

[12] = tested on: Primary T cells CD4+ activated; assay: as above
Method in brief: as §3

[13] = tested on: Primary T cells CD4+ naive; assay: as above
Method in brief: as §3

[14] = tested on: Primary T cells CD8+ activated; assay: as above
Method in brief: as §3

[15] = tested on: Primary T cells CD8+ naive; assay: as above
Method in brief: as §3

Cc1[nH]c2ccccc2c1CCNCc1ccc(C=CC(=O)NO)cc1 [Panobinostat]
confluency (Jurkat [1]; 1 nM): 0.912
confluency (Jurkat [1]; 10 nM): 0.937
confluency (Jurkat [1]; 100 nM): 1.01
confluency (Jurkat [1]; 1000 nM): 0.992
confluency (Jurkat [1]; 10000 nM): 0.978
confluency ([2]; 1 nM): 1.04
confluency ([2]; 10 nM): 1.01
confluency ([2]; 100 nM): 1.17
confluency ([2]; 1000 nM): 1.35
confluency ([2]; 10000 nM): 1.02
confluency ([3]; 1 nM): 1.2
confluency ([3]; 10 nM): 1.02
confluency ([3]; 100 nM): 1.29
confluency ([3]; 1000 nM): 1.13
confluency ([3]; 10000 nM): 0.869
confluency ([4]; 1 nM): 0.974
confluency ([4]; 10 nM): 0.886
confluency ([4]; 100 nM): 1.04
confluency ([4]; 1000 nM): 1.26
confluency ([4]; 10000 nM): 1.21
confluency ([5]; 1 nM): 1.19
confluency ([5]; 10 nM): 0.473
confluency ([5]; 100 nM): 1.08
confluency ([5]; 1000 nM): 0.774
confluency ([5]; 10000 nM): 0.932
metabolic activity (Jurkat [6]; 1 nM): 1.05
metabolic activity (Jurkat [6]; 10 nM): 0.782
metabolic activity (Jurkat [6]; 100 nM): 0.681
metabolic activity (Jurkat [6]; 1000 nM): 0.72
metabolic activity (Jurkat [6]; 10000 nM): 0.849
metabolic activity ([7]; 1 nM): 0.998
metabolic activity ([7]; 10 nM): 0.826
metabolic activity ([7]; 100 nM): 0.627
metabolic activity ([7]; 1000 nM): 0.616
metabolic activity ([7]; 10000 nM): 0.875
metabolic activity ([8]; 1 nM): 0.856
metabolic activity ([8]; 10 nM): 0.957
metabolic activity ([8]; 100 nM): 0.728
metabolic activity ([8]; 1000 nM): 0.726
metabolic activity ([8]; 10000 nM): 0.813
metabolic activity ([9]; 1 nM): 1
metabolic activity ([9]; 10 nM): 0.909
metabolic activity ([9]; 100 nM): 0.738
metabolic activity ([9]; 1000 nM): 0.725
metabolic activity ([9]; 10000 nM): 0.778
metabolic activity ([10]; 1 nM): 0.913
metabolic activity ([10]; 10 nM): 0.881
metabolic activity ([10]; 100 nM): 0.836
metabolic activity ([10]; 1000 nM): 0.779
metabolic activity ([10]; 10000 nM): 0.766
cytotoxicity (Jurkat [11]; 1 nM): 0.94
cytotoxicity (Jurkat [11]; 10 nM): 0.843
cytotoxicity (Jurkat [11]; 100 nM): 0.933
cytotoxicity (Jurkat [11]; 1000 nM): 0.873
cytotoxicity (Jurkat [11]; 10000 nM): 0.921
cytotoxicity ([12]; 1 nM): 1.04
cytotoxicity ([12]; 10 nM): 1.08
cytotoxicity ([12]; 100 nM): 1.32
cytotoxicity ([12]; 1000 nM): 1.5
cytotoxicity ([12]; 10000 nM): 0.92
cytotoxicity ([13]; 1 nM): 1.29
cytotoxicity ([13]; 10 nM): 0.906
cytotoxicity ([13]; 100 nM): 1.33
cytotoxicity ([13]; 1000 nM): 1.19
cytotoxicity ([13]; 10000 nM): 0.853
cytotoxicity ([14]; 1 nM): 0.993
cytotoxicity ([14]; 10 nM): 0.888
cytotoxicity ([14]; 100 nM): 1.11
cytotoxicity ([14]; 1000 nM): 1.34
cytotoxicity ([14]; 10000 nM): 1.3
cytotoxicity ([15]; 1 nM): 1.34
cytotoxicity ([15]; 10 nM): 0.493
cytotoxicity ([15]; 100 nM): 1.16
cytotoxicity ([15]; 1000 nM): 0.814
cytotoxicity ([15]; 10000 nM): 1.06

Nc1cc(F)ccc1NC(=O)c1ccc(CNC(=O)C=Cc2cccnc2)cc1 [Tucidinostat]
confluency (Jurkat [1]; 1 nM): 1
confluency (Jurkat [1]; 10 nM): 0.981
confluency (Jurkat [1]; 100 nM): 0.912
confluency (Jurkat [1]; 1000 nM): 0.878
confluency (Jurkat [1]; 10000 nM): 1.03
confluency ([3]; 1 nM): 1.08
confluency ([3]; 10 nM): 1.18
confluency ([3]; 100 nM): 1.3
confluency ([3]; 1000 nM): 1.26
confluency ([3]; 10000 nM): 0.617
metabolic activity (Jurkat [6]; 1 nM): 0.891
metabolic activity (Jurkat [6]; 10 nM): 0.945
metabolic activity (Jurkat [6]; 100 nM): 0.974
metabolic activity (Jurkat [6]; 1000 nM): 0.952
metabolic activity (Jurkat [6]; 10000 nM): 0.882
metabolic activity ([8]; 1 nM): 0.862
metabolic activity ([8]; 10 nM): 1.05
metabolic activity ([8]; 100 nM): 0.872
metabolic activity ([8]; 1000 nM): 0.881
metabolic activity ([8]; 10000 nM): 0.697
cytotoxicity (Jurkat [11]; 1 nM): 1.08
cytotoxicity (Jurkat [11]; 10 nM): 0.992
cytotoxicity (Jurkat [11]; 100 nM): 0.929
cytotoxicity (Jurkat [11]; 1000 nM): 0.871
cytotoxicity (Jurkat [11]; 10000 nM): 0.987
cytotoxicity ([13]; 1 nM): 1.13
cytotoxicity ([13]; 10 nM): 1.05
cytotoxicity ([13]; 100 nM): 1.42
cytotoxicity ([13]; 1000 nM): 1.19
cytotoxicity ([13]; 10000 nM): 0.636

O=C(CCCCCCC(=O)Nc1ccccc1)NO [Vorinostat]
confluency (Jurkat [1]; 1 nM): 1.03
confluency (Jurkat [1]; 10 nM): 1
confluency (Jurkat [1]; 100 nM): 1.14
confluency (Jurkat [1]; 1000 nM): 1.11
confluency (Jurkat [1]; 10000 nM): 1.36
metabolic activity (Jurkat [6]; 1 nM): 0.947
metabolic activity (Jurkat [6]; 10 nM): 0.907
metabolic activity (Jurkat [6]; 100 nM): 0.815
metabolic activity (Jurkat [6]; 1000 nM): 0.809
metabolic activity (Jurkat [6]; 10000 nM): 0.764
metabolic activity ([7]; 1 nM): 0.849
metabolic activity ([7]; 10 nM): 0.979
metabolic activity ([7]; 100 nM): 0.964
metabolic activity ([7]; 1000 nM): 0.945
metabolic activity ([7]; 10000 nM): 0.788
metabolic activity ([8]; 1 nM): 0.859
metabolic activity ([8]; 10 nM): 0.862
metabolic activity ([8]; 100 nM): 0.902
metabolic activity ([8]; 1000 nM): 1.02
metabolic activity ([8]; 10000 nM): 0.913
